Measurements taken from the supplement of paper PMC10307832.

Assays:
Test in all cases: relative viability (nuclei count vs DMSO), 5 days (fraction); higher = more cells survive
[1] = compound: CN(C/C=C/C1=CC=C(C=C1)Cl)CC2=CC=CC=C2N(CCO)S(=O)(=O)C3=CC=C(C=C3)OC [KN-93] + CC(=O)c1c(C)c2cnc(Nc3ccc(N4CCNCC4)cn3)nc2n(C2CCCC2)c1=O [Palbociclib] (partner 0.5 µM)
Method in brief: (§1)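 Medians of duplicate plates are given as relative viability. That measure is the nuclei count in treated wells divided by the count in vehicle wells. Counts were taken on 4× images of lung cancer cell lines in 1536-well plates, 5 days after pin-tool dosing the day after seeding with one drug alone or a fixed anchor-drug dose plus five library-drug doses (not always all listed) in √10 steps.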

[2] = compound: CN(C/C=C/C1=CC=C(C=C1)Cl)CC2=CC=CC=C2N(CCO)S(=O)(=O)C3=CC=C(C=C3)OC [KN-93] + CC(C)C[C@H](NC(=O)[C@H](Cc1ccccc1)NC(=O)c1cnccn1)B(O)O [Bortezomib] (partner 0.002 µM)
Method in brief: as §1

[3] = compound: CN(C/C=C/C1=CC=C(C=C1)Cl)CC2=CC=CC=C2N(CCO)S(=O)(=O)C3=CC=C(C=C3)OC [KN-93] + COc1cc2c(Oc3ccc(NC(=O)C4(C(=O)Nc5ccc(F)cc5)CC4)cc3F)ccnc2cc1OCCCN1CCOCC1 [Foretinib] (partner 0.25 µM)
Method in brief: as §1

[4] = compound: CN(C/C=C/C1=CC=C(C=C1)Cl)CC2=CC=CC=C2N(CCO)S(=O)(=O)C3=CC=C(C=C3)OC [KN-93] + Nc1nc2[nH]cc(CCc3ccc(C(=O)N[C@@H](CCC(=O)O)C(=O)O)cc3)c2c(=O)[nH]1 [Pemetrexed] (partner 0.2 µM)
Method in brief: as §1

[5] = compound: CN(C/C=C/C1=CC=C(C=C1)Cl)CC2=CC=CC=C2N(CCO)S(=O)(=O)C3=CC=C(C=C3)OC [KN-93] + Nc1ncn([C@H]2C[C@H](O)[C@@H](CO)O2)c(=O)n1 [Decitabine] (partner 2 µM)
Method in brief: as §1

Cell Line: H3255
- relative viability ([1]; first compound 0.08 µM): 0.322
- relative viability ([1]; first compound 0.253 µM): 0.303
- relative viability ([1]; first compound 2.53 µM): 0.3
- relative viability ([1]; first compound 8 µM): 0.266
- relative viability ([2]; first compound 0.08 µM): 0.906
- relative viability ([2]; first compound 0.253 µM): 0.865
- relative viability ([2]; first compound 2.53 µM): 0.91
- relative viability ([2]; first compound 8 µM): 0.578
- relative viability ([3]; first compound 0.08 µM): 0.986
- relative viability ([3]; first compound 0.253 µM): 0.902
- relative viability ([3]; first compound 2.53 µM): 0.864
- relative viability ([3]; first compound 8 µM): 0.807
- relative viability ([4]; first compound 0.08 µM): 0.558
- relative viability ([4]; first compound 0.253 µM): 0.54
- relative viability ([4]; first compound 2.53 µM): 0.544
- relative viability ([4]; first compound 8 µM): 0.484
- relative viability ([5]; first compound 0.08 µM): 0.603
- relative viability ([5]; first compound 0.253 µM): 0.728
- relative viability ([5]; first compound 2.53 µM): 0.54
- relative viability ([5]; first compound 8 µM): 0.474

Cell Line: HARA
- relative viability ([1]; first compound 0.08 µM): 0.29
- relative viability ([1]; first compound 0.253 µM): 0.261
- relative viability ([1]; first compound 2.53 µM): 0.229
- relative viability ([1]; first compound 8 µM): 0.195
- relative viability ([2]; first compound 0.08 µM): 1.01
- relative viability ([2]; first compound 0.253 µM): 1.08
- relative viability ([2]; first compound 2.53 µM): 1.24
- relative viability ([2]; first compound 8 µM): 0.836
- relative viability ([3]; first compound 0.08 µM): 0.918
- relative viability ([3]; first compound 0.253 µM): 1.37
- relative viability ([3]; first compound 2.53 µM): 0.887
- relative viability ([3]; first compound 8 µM): 0.532
- relative viability ([4]; first compound 0.08 µM): 0.292
- relative viability ([4]; first compound 0.253 µM): 0.29
- relative viability ([4]; first compound 2.53 µM): 0.282
- relative viability ([4]; first compound 8 µM): 0.247
- relative viability ([5]; first compound 0.08 µM): 0.572
- relative viability ([5]; first compound 0.253 µM): 0.554
- relative viability ([5]; first compound 2.53 µM): 0.641
- relative viability ([5]; first compound 8 µM): 0.506

Cell Line: HCC-15
- relative viability ([1]; first compound 0.08 µM): 0.671
- relative viability ([1]; first compound 0.253 µM): 0.82
- relative viability ([1]; first compound 2.53 µM): 0.735
- relative viability ([1]; first compound 8 µM): 0.513
- relative viability ([2]; first compound 0.08 µM): 0.838
- relative viability ([2]; first compound 0.253 µM): 1.27
- relative viability ([2]; first compound 2.53 µM): 1.17
- relative viability ([2]; first compound 8 µM): 0.634
- relative viability ([3]; first compound 0.08 µM): 0.914
- relative viability ([3]; first compound 0.253 µM): 1.12
- relative viability ([3]; first compound 2.53 µM): 1.11
- relative viability ([3]; first compound 8 µM): 0.807
- relative viability ([4]; first compound 0.08 µM): 0.218
- relative viability ([4]; first compound 0.253 µM): 0.209
- relative viability ([4]; first compound 2.53 µM): 0.21
- relative viability ([4]; first compound 8 µM): 0.215
- relative viability ([5]; first compound 0.08 µM): 0.546
- relative viability ([5]; first compound 0.253 µM): 0.62
- relative viability ([5]; first compound 2.53 µM): 0.707
- relative viability ([5]; first compound 8 µM): 0.309

Cell Line: HCC-44
- relative viability ([1]; first compound 0.08 µM): 1.04
- relative viability ([1]; first compound 0.253 µM): 0.878
- relative viability ([1]; first compound 2.53 µM): 0.979
- relative viability ([1]; first compound 8 µM): 0.79
- relative viability ([2]; first compound 0.08 µM): 0.834
- relative viability ([2]; first compound 0.253 µM): 0.801
- relative viability ([2]; first compound 2.53 µM): 1.03
- relative viability ([2]; first compound 8 µM): 0.751
- relative viability ([4]; first compound 0.08 µM): 0.652
- relative viability ([4]; first compound 0.253 µM): 0.615
- relative viability ([4]; first compound 2.53 µM): 0.667
- relative viability ([4]; first compound 8 µM): 0.678
- relative viability ([5]; first compound 0.08 µM): 1.05
- relative viability ([5]; first compound 0.253 µM): 0.929
- relative viability ([5]; first compound 2.53 µM): 1.03
- relative viability ([5]; first compound 8 µM): 0.915
